Reference: patent publication US9029384B2, “Phosphatidylinositol 3-kinase inhibitors” (Gilead Calistoga LLC, priority 2012, dated 2015)
Like-named read-outs stand apart in the source and are kept apart here.

Key:
PI3Kδ = target: T1, PI3Kδ (Homo sapiens, UniProt O00329); assay: Enzymatic activity of PI3K isoforms, TR-FRET assay (PIP3 formation); type: biochemical; conditions: read-out: IC50
T1 construct: made in house
Description: Enzymatic Activity of PI3K Isoforms
The TR-FRET assay was used to monitor formation of the product 3,4,5-inositol triphosphate molecule (PIP3) as it competed with fluorescently labeled PIP3 for binding to the GRP-1 pleckstrin homology domain protein. An increase in […] product results in a decrease in TR-FRET signal as the labeled fluorophore is displaced from the GRP-1 protein binding site.
Class I PI3K isoforms were expressed and purified as heterodimeric recombinant proteins. All assay reagents and buffers for the TR-FRET assay were purchased from Millipore. […] After an assay reaction time of 30 minutes at 25° C., reactions were terminated with a final concentration of 10 mM EDTA, 10 nM labeled-PIP3, and 35 nM Europium labeled GRP-1 detector protein before reading TR-FRET on an Envision plate reader (Ex: 340 nm; Em: 615/665 nm; 100 μs delay and 500 μs read window).
Data are normalized based on a positive (1 uM wortmanin) and negative (DMSO) controls. The α, β, δ, and γ IC50 values were calculated from the fit of the dose-response curves to a four-parameter equation. IC50 are reported in units of nM.
IC50 values were obtained for all PI3K isoforms (α, β, δ, and γ), and Table 2 summarizes the IC50 data collected for PI3Kδ in this Example B1.

basophils = assay: Basophil activation in human whole blood (Flow2 CAST kit, CD63 positive cells); type: cell-based; conditions: basophils activated with anti-FcεRI mAb or fMLP, geometric mean
Description: Effect on basophil activation was measured in human whole blood using the Flow2 CAST® kit (Buhlmann Laboratories AG, Baselstrasse, Switzerland) following the protocol provided by the manufacturer with minor modifications. Human whole blood was collected into K2-EDTA venipuncture tubes. Whole blood samples were treated with either DMSO (0.3% final) or a serial dilution of compounds in DMSO for 60 minutes at 37° C. Basophils were then activated either with anti-FcεRI mAb or with fMLP. To activate basophils using the anti-FcεRI mAb; 50 μl of whole blood was mixed with 110 μl of stimulation buffer (B-BAT-STB) and 20 μl of anti-FcεRI (B-BAT-STCON). To activate basophils with fMLP; 50 μl of whole blood was mixed with 80 μl of stimulation buffer (B-BAT-STB) and 50 μl of fMLP (B-CCR-FMLP). Stimulation buffer was used as a negative control. 20 μl of the staining reagent (combination of anti-human CD63-FITC and anti-human CCR3-PE mAbs) was then added to each tube. […] Subsequently, erythrocytes were lysed and fixed by the addition of 2 ml of lysing solution (B-BAT-LYR) for 10 min at room temperature. Cells were pelleted by centrifugation at 1200 rpm for 10 min at room temperature in a swing-out rotor. Supernatant was aspirated and cell pellet resuspended in 400 μl of wash buffer. Flow cytometric analysis of the basophil activation was performed on a FC500MPL flow cytometer (Beckman Coulter Inc., Fullerton, Calif.). CCR3-staining and side scatter were applied to gate at least 200 basophils that expressed a high density of CCR3. The percent CD63 positive cells within the gated basophil population were determined in different treatment groups and normalized to the vehicle control (0.3% DMSO) with anti-FcεRI mAb of fMLP stimulus as 100%. Final compound concentration was adjusted to correct for dilution effect of added reagents. The EC50 values were calculated from the analysis of the dose-response curves to a four-parameter equation. All EC50 values represent geometric mean values and are reported in units of nM.

[1] = PI3Kδ, TR-FRET, 2×Km ATP, 10 μM PIP2

T1 sequence (O00329 whole entry, canonical isoform): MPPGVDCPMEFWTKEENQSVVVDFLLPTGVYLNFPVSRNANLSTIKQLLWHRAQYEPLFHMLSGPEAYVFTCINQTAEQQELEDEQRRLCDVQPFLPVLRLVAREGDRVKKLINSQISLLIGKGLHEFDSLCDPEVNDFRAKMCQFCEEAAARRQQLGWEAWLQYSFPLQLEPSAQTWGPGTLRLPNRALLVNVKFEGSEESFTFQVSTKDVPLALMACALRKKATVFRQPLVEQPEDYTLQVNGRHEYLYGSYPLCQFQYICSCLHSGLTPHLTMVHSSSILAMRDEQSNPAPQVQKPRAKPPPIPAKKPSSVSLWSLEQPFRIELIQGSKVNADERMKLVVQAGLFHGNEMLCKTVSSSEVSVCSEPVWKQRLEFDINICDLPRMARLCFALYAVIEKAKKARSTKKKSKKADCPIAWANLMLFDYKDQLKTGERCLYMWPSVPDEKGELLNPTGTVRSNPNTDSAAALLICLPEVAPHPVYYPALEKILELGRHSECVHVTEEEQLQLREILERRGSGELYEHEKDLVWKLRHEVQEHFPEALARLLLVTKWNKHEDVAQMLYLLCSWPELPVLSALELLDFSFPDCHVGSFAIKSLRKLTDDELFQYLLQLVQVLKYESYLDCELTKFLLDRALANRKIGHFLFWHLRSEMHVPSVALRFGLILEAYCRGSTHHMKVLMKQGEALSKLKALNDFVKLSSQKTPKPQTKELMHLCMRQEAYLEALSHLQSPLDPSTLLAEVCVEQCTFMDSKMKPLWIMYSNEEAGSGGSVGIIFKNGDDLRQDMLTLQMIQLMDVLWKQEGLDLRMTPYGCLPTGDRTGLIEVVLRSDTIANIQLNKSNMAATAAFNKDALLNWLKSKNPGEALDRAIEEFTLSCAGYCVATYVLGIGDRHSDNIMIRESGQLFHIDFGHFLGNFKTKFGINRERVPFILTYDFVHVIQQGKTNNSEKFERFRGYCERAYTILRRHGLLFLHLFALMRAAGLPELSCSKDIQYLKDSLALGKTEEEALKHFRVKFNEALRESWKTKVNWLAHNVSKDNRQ
T1 sequence (P27986 whole entry partner, canonical isoform): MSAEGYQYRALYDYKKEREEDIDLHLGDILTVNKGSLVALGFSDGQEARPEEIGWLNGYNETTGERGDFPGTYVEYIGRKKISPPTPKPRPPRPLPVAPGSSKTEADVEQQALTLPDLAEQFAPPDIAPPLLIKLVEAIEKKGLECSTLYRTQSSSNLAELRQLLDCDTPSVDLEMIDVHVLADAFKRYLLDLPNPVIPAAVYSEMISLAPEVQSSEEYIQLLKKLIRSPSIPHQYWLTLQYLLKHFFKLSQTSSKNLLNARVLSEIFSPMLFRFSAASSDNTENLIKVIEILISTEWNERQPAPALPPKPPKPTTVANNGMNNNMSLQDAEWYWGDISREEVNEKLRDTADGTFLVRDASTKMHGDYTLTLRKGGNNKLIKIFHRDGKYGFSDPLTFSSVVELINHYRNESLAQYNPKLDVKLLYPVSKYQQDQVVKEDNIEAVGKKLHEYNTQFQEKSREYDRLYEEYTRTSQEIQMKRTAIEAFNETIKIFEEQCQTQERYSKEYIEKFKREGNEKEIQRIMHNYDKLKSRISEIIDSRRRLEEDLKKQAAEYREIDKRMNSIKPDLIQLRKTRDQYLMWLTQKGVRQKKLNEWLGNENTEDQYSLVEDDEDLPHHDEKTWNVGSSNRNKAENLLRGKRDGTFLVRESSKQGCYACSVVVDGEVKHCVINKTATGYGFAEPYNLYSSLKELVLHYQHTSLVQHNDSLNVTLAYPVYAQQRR

Compound | IC50 (PI3Kδ; [1]) | EC50 (basophils) | IC50 (PI3Kδ) | EC50 (basophils; Homo sapiens)
COc1ccc(C)c(-n2c(C(C)Nc3nc(N)nc(N)c3C#N)nc3cccc(Cl)c3c2=O)c1 (single isomer, unassigned) [Compound 187a-1] | 1 to 10 nM | 10 to 50 nM | – | –
COc1ccc(C)c(-n2c(C(C)Nc3nc(N)nc(N)c3C#N)nc3cccc(Cl)c3c2=O)c1 (single isomer, unassigned) [Compound 187a-2] | 1 to 10 nM | 1 to 10 nM | – | –
Cc1ccc(C(F)F)cc1-n1c(C(C)Nc2nc(N)nc(N)c2C#N)nc2cccc(Cl)c2c1=O (single isomer, unassigned) [Compound 188a-1] | 1 to 10 nM | 10 to 50 nM | – | –
Cc1c(C(F)F)cccc1-n1c(C(C)Nc2nc(N)nc(N)c2C#N)nc2cccc(Cl)c2c1=O (single isomer, unassigned) [Compound 189a-1] | 10 to 50 nM | > 50 nM | – | –
Cc1c(C(F)F)cccc1-n1c(C(C)Nc2nc(N)nc(N)c2C#N)nc2cccc(Cl)c2c1=O (single isomer, unassigned) [Compound 189a-2] | < 1 nM | 1 to 10 nM | – | –
Cc1ccc(C)c(-n2c(C(C)Nc3nc(N)nc(N)c3C#N)nc3cccc(Cl)c3c2=O)c1 (single isomer, unassigned) [Compound 191a-1] | 1 to 10 nM | 10 to 50 nM | – | –
Cc1ccc(C)c(-n2c(C(C)Nc3nc(N)nc(N)c3C#N)nc3cccc(Cl)c3c2=O)c1 (single isomer, unassigned) [Compound 191a-2] | 1 to 10 nM | 1 to 10 nM | – | –
CC(Nc1nc(N)nc(N)c1F)c1nc2cccc(Cl)c2c(=O)n1-c1ccccc1 (single isomer, unassigned) [Compound 194a] | > 50 nM | > 50 nM | – | –
CC(Nc1nc(N)nc(N)c1Cl)c1cc2cccc(Cl)c2c(=O)n1-c1ccccc1 (single isomer, unassigned) [Compound 195a] | – | 1 to 10 nM | < 1 nM | –
CC(Nc1nc(N)nc(N)c1C#N)c1cc2cccc(Cl)c2c(=O)n1-c1ccccc1 (single isomer, unassigned) [Compound 196a] | – | < 1 nM | < 1 nM | –
CC(C)C(Nc1nc(N)nc(N)c1C#N)c1nc2cccc(Cl)c2c(=O)n1-c1cc(F)cc(F)c1 (single isomer, unassigned) [Compound 198a] | 1 to 10 nM | – | – | 1 to 10 nM
Cc1c(F)cccc1-n1c(C(C)Nc2nc(N)nc(N)c2C#N)nc2cccc(Cl)c2c1=O (single isomer, unassigned) [Compound 199a-1] | < 1 nM | < 1 nM | – | –
Cc1c(F)cccc1-n1c(C(C)Nc2nc(N)nc(N)c2C#N)nc2cccc(Cl)c2c1=O (single isomer, unassigned) [Compound 199a-2] | 1 to 10 nM | > 50 nM | – | –
Cc1c(F)cc(F)cc1-n1c(C(C)Nc2nc(N)nc(N)c2C#N)nc2cccc(Cl)c2c1=O (single isomer, unassigned) [Compound 200a-1] | 10 to 50 nM | 10 to 50 nM | – | –
Cc1c(F)cc(F)cc1-n1c(C(C)Nc2nc(N)nc(N)c2C#N)nc2cccc(Cl)c2c1=O (single isomer, unassigned) [Compound 200a-2] | 10 to 50 nM | 1 to 10 nM | – | –
Cc1ccc(F)cc1-n1c(C(C)Nc2nc(N)nc(N)c2C#N)nc2cccc(Cl)c2c1=O (single isomer, unassigned) [Compound 201a-1] | < 1 nM | – | – | < 1 nM
Cc1cccc(-n2c(C(C)Nc3nc(N)nc(N)c3C#N)nc3cccc(Cl)c3c2=O)c1C (single isomer, unassigned) [Compound 202a-1] | < 1 nM | 1 to 10 nM | – | –
Cc1cccc(-n2c(C(C)Nc3nc(N)nc(N)c3C#N)nc3cccc(Cl)c3c2=O)c1C (single isomer, unassigned) [Compound 202a-2] | 10 to 50 nM | > 50 nM | – | –
Cc1c(F)ccc(-n2c(C(C)Nc3nc(N)nc(N)c3C#N)nc3cccc(Cl)c3c2=O)c1C (single isomer, unassigned) [Compound 203a-1] | 1 to 10 nM | > 50 nM | – | –
Cc1c(F)ccc(-n2c(C(C)Nc3nc(N)nc(N)c3C#N)nc3cccc(Cl)c3c2=O)c1C (single isomer, unassigned) [Compound 203a-2] | > 50 nM | 10 to 50 nM | – | –
